Reference: the NIST ThermoML archive (doi:10.1021/je3011979)
± gives the expanded uncertainty stated by the source.

Key:
[1] = refractive index (Na D-line) (dimensionless); settings: 101.33 kPa, Liquid, Standard Abbe refractometry
[2] = Liquid; for mass density: 101 kPa, Vibrating tube method; for vapor or sublimation pressure: Ebulliometric method (Recirculating still)
[3] = xn = mol fraction of the nth substance listed; settings: 101 kPa, Liquid, Vibrating tube method
[4] = excess molar enthalpy (molar enthalpy of mixing); xn = mol fraction of the nth substance listed; settings: 291.15 K, 101 kPa, Liquid, Calvet calorimetry

CCCCCCCCCC [decane]
Settings	mass density, 291.15 K [kg/m3]	mass density, 298.15 K [kg/m3]	mass density, 318.15 K [kg/m3]	mass density, 328.15 K [kg/m3]	refractive index, 298.15 K	refractive index, 318.15 K	vapor or sublimation pressure, 447.27 K [kPa]
[1]	–	–	–	–	1.4096 ± 0.0005	1.4008 ± 0.0005	–
[2]	731.2 ± 0.2	726.2 ± 0.3	710.9 ± 0.3	703.3 ± 0.3	–	–	101.32 ± 0.46

CCCCCCCCCC [decane] + CCCOC(C)=O
[3], x2 = 0
Settings	mass density [kg/m3]
291.15 K	731.2 ± 0.2
298.15 K	726.2 ± 0.3
318.15 K	710.9 ± 0.3
328.15 K	703.3 ± 0.3

CCCCCCC [heptane]
Settings	mass density, 291.15 K [kg/m3]	mass density, 298.15 K [kg/m3]	mass density, 318.15 K [kg/m3]	mass density, 328.15 K [kg/m3]	refractive index, 298.15 K	refractive index, 318.15 K	vapor or sublimation pressure, 371.55 K [kPa]
[1]	–	–	–	–	1.3852 ± 0.0005	1.3748 ± 0.0005	–
[2]	685.3 ± 0.3	679.5 ± 0.3	662.1 ± 0.3	653.7 ± 0.3	–	–	101.32 ± 0.46

CCCCCCC [heptane] + CCCOC(C)=O
[3], x2 = 0
Settings	mass density [kg/m3]
291.15 K	685.3 ± 0.3
298.15 K	679.5 ± 0.3
318.15 K	662.1 ± 0.3
328.15 K	653.7 ± 0.3

CCCCCC [hexane]
Settings	mass density, 291.15 K [kg/m3]	mass density, 298.15 K [kg/m3]	mass density, 318.15 K [kg/m3]	mass density, 328.15 K [kg/m3]	refractive index, 298.15 K	refractive index, 318.15 K	vapor or sublimation pressure, 341.89 K [kPa]
[1]	–	–	–	–	1.3723 ± 0.0005	1.3615 ± 0.0005	–
[2]	661.2 ± 0.3	654.8 ± 0.3	636.7 ± 0.3	627.2 ± 0.3	–	–	101.32 ± 0.46

CCCCCC [hexane] + CCCOC(C)=O
[3], x2 = 0
Settings	mass density [kg/m3]
291.15 K	661.2 ± 0.3
298.15 K	654.8 ± 0.3
318.15 K	636.7 ± 0.3
328.15 K	627.2 ± 0.3

CCCCCCCCC [nonane]
Settings	mass density, 291.15 K [kg/m3]	mass density, 298.15 K [kg/m3]	mass density, 318.15 K [kg/m3]	mass density, 328.15 K [kg/m3]	refractive index, 298.15 K	refractive index, 318.15 K	vapor or sublimation pressure, 423.94 K [kPa]
[1]	–	–	–	–	1.4031 ± 0.0005	1.3938 ± 0.0005	–
[2]	719.2 ± 0.3	713.9 ± 0.3	698.1 ± 0.3	690.2 ± 0.3	–	–	101.32 ± 0.46

CCCCCCCCC [nonane] + CCCOC(C)=O
[3], x2 = 0
Settings	mass density [kg/m3]
291.15 K	719.2 ± 0.3
298.15 K	713.9 ± 0.3
318.15 K	698.1 ± 0.3
328.15 K	690.2 ± 0.3

CCCCCCCC [octane]
Settings	mass density, 291.15 K [kg/m3]	mass density, 298.15 K [kg/m3]	mass density, 318.15 K [kg/m3]	mass density, 328.15 K [kg/m3]	refractive index, 298.15 K	refractive index, 318.15 K	vapor or sublimation pressure, 398.85 K [kPa]
[1]	–	–	–	–	1.3952 ± 0.0005	1.3855 ± 0.0005	–
[2]	704.1 ± 0.3	698.6 ± 0.3	682.2 ± 0.3	674.1 ± 0.3	–	–	101.32 ± 0.46

CCCCCCCC [octane] + CCCOC(C)=O
[3], x2 = 0
Settings	mass density [kg/m3]
291.15 K	704.1 ± 0.3
298.15 K	698.6 ± 0.3
318.15 K	682.2 ± 0.3
328.15 K	674.1 ± 0.3

CCCCC [pentane]
Settings	mass density, 291.15 K [kg/m3]	mass density, 298.15 K [kg/m3]	refractive index, 298.15 K	vapor or sublimation pressure, 309.24 K [kPa]
[1]	–	–	1.3545 ± 0.0005	–
[2]	628.2 ± 0.3	621.4 ± 0.3	–	101.32 ± 0.46

CCCCC [pentane] + CCCOC(C)=O
[4]
Settings	excess molar enthalpy [kcal/mol]
x2 = 0.0667	0.0535 ± 0.0012
x2 = 0.1334	0.097 ± 0.00143
x2 = 0.2047	0.147 ± 0.00167
x2 = 0.2753	0.186 ± 0.00191
x2 = 0.3414	0.2185 ± 0.00191
x2 = 0.4028	0.2361 ± 0.00215
x2 = 0.461	0.2452 ± 0.00215
x2 = 0.5088	0.2464 ± 0.00215
x2 = 0.5257	0.245 ± 0.00215
x2 = 0.5824	0.2326 ± 0.00215
x2 = 0.6434	0.2141 ± 0.00191
x2 = 0.7089	0.188 ± 0.00191
x2 = 0.7812	0.152 ± 0.00167
x2 = 0.8537	0.107 ± 0.00143
x2 = 0.9242	0.0595 ± 0.0012

mass density [kg/m3], [3]
Settings	291.15 K	298.15 K
x2 = 0	628.2 ± 0.3	621.4 ± 0.3
x2 = 0.0101	–	623.7 ± 0.4
x2 = 0.0121	631.2 ± 0.4	–
x2 = 0.0346	–	629.8 ± 0.4
x2 = 0.0427	638.8 ± 0.4	–
x2 = 0.0754	–	640 ± 0.4
x2 = 0.078	647.7 ± 0.4	–
x2 = 0.1377	–	655.9 ± 0.4
x2 = 0.1417	664 ± 0.4	–
x2 = 0.1977	–	671.4 ± 0.4
x2 = 0.2048	680.3 ± 0.4	–
x2 = 0.2734	698.2 ± 0.4	–
x2 = 0.283	–	693.6 ± 0.4
x2 = 0.3338	714.1 ± 0.4	–
x2 = 0.3439	–	709.7 ± 0.4
x2 = 0.3934	729.8 ± 0.4	–
x2 = 0.4072	–	726.4 ± 0.4
x2 = 0.4636	748.4 ± 0.4	–
x2 = 0.4881	–	747.7 ± 0.4
x2 = 0.5218	–	756.5 ± 0.4
x2 = 0.5224	763.9 ± 0.4	–
x2 = 0.5876	781.1 ± 0.4	–
x2 = 0.5968	–	776.4 ± 0.4
x2 = 0.6565	799.3 ± 0.4	792.1 ± 0.4
x2 = 0.7085	–	805.9 ± 0.4
x2 = 0.7136	814.4 ± 0.4	–
x2 = 0.7697	829.2 ± 0.4	–
x2 = 0.8277	844.6 ± 0.4	–
x2 = 0.8437	–	841.6 ± 0.4
x2 = 0.8911	861.3 ± 0.4	–
x2 = 0.9205	–	861.8 ± 0.4
x2 = 0.923	869.7 ± 0.4	–

CCCOC(C)=O [propyl ethanoate]
Settings	mass density [kg/m3]	refractive index	vapor or sublimation pressure [kPa]
[1], 298.15 K	–	1.3818 ± 0.0005	–
[1], 318.15 K	–	1.372 ± 0.0005	–
[2], 291.15 K	889.6 ± 0.2	–	–
[2], 298.15 K	882.5 ± 0.2	–	–
[2], 318.15 K	859.8 ± 0.2	–	–
[2], 318.35 K	–	–	12.14 ± 0.04
[2], 322.19 K	–	–	14.43 ± 0.05
[2], 325.87 K	–	–	17.04 ± 0.05
[2], 328.15 K	848.3 ± 0.2	–	–
[2], 328.95 K	–	–	19.43 ± 0.05
[2], 331.59 K	–	–	21.77 ± 0.05
[2], 334.22 K	–	–	24.29 ± 0.05
[2], 336.6 K	–	–	26.79 ± 0.05
[2], 338.75 K	–	–	29.12 ± 0.06
[2], 340.72 K	–	–	31.53 ± 0.06
[2], 342.66 K	–	–	33.96 ± 0.06
[2], 344.52 K	–	–	36.46 ± 0.06
[2], 346.15 K	–	–	38.78 ± 0.06
[2], 347.73 K	–	–	41.14 ± 0.07
[2], 349.35 K	–	–	43.69 ± 0.07
[2], 350.81 K	–	–	46.08 ± 0.07
[2], 352.19 K	–	–	48.41 ± 0.07
[2], 353.57 K	–	–	50.84 ± 0.08
[2], 354.78 K	–	–	53.11 ± 0.08
[2], 356.03 K	–	–	55.48 ± 0.08
[2], 357.29 K	–	–	57.96 ± 0.08
[2], 358.41 K	–	–	60.24 ± 0.08
[2], 359.52 K	–	–	62.59 ± 0.09
[2], 360.63 K	–	–	65 ± 0.09
[2], 361.71 K	–	–	67.41 ± 0.09
[2], 362.73 K	–	–	69.74 ± 0.09
[2], 363.81 K	–	–	72.28 ± 0.1
[2], 364.84 K	–	–	74.8 ± 0.1
[2], 365.86 K	–	–	77.35 ± 0.1
[2], 366.81 K	–	–	79.8 ± 0.1
[2], 367.7 K	–	–	82.11 ± 0.11
[2], 368.62 K	–	–	84.58 ± 0.11
[2], 369.51 K	–	–	87.01 ± 0.11
[2], 370.41 K	–	–	89.57 ± 0.11
[2], 371.18 K	–	–	91.8 ± 0.12
[2], 371.99 K	–	–	94.17 ± 0.12
[2], 372.78 K	–	–	96.55 ± 0.12
[2], 373.55 K	–	–	98.87 ± 0.12
[2], 373.97 K	–	–	100.18 ± 0.12
[2], 374.34 K	–	–	101.32 ± 0.46
[2], 374.52 K	–	–	101.32 ± 0.13
[2], 375.1 K	–	–	103.76 ± 0.14
[2], 375.78 K	–	–	106.19 ± 0.13
[2], 376.51 K	–	–	108.56 ± 0.13
[2], 377.29 K	–	–	111.14 ± 0.14
[2], 377.98 K	–	–	113.47 ± 0.14
[2], 378.69 K	–	–	115.96 ± 0.14
[2], 379.36 K	–	–	118.3 ± 0.14
[2], 380.04 K	–	–	120.71 ± 0.15
[2], 380.74 K	–	–	123.19 ± 0.15
[2], 381.41 K	–	–	125.61 ± 0.15
[2], 382.06 K	–	–	128.01 ± 0.15
[2], 382.71 K	–	–	130.42 ± 0.16
[2], 383.34 K	–	–	132.85 ± 0.16
[2], 384.01 K	–	–	135.42 ± 0.16
[2], 384.55 K	–	–	137.67 ± 0.16
[2], 385.18 K	–	–	140.04 ± 0.17
[2], 385.79 K	–	–	142.47 ± 0.17
[2], 386.36 K	–	–	144.8 ± 0.17
[2], 386.9 K	–	–	147.09 ± 0.17
[2], 387.49 K	–	–	149.51 ± 0.18
[2], 388.06 K	–	–	151.96 ± 0.18
[2], 388.63 K	–	–	154.37 ± 0.18
[2], 389.16 K	–	–	156.68 ± 0.19
[2], 389.68 K	–	–	158.99 ± 0.19
[2], 390.18 K	–	–	161.23 ± 0.19
[2], 390.68 K	–	–	163.46 ± 0.19
[2], 391.22 K	–	–	165.89 ± 0.19
[2], 391.7 K	–	–	168.13 ± 0.2
[2], 392.24 K	–	–	170.62 ± 0.2
[2], 392.73 K	–	–	172.98 ± 0.2
[2], 393.23 K	–	–	175.35 ± 0.2
[2], 393.71 K	–	–	177.64 ± 0.21
[2], 394.16 K	–	–	180.01 ± 0.21
[2], 394.66 K	–	–	182.44 ± 0.21
[2], 395.17 K	–	–	185.03 ± 0.22
[2], 395.67 K	–	–	187.59 ± 0.22
[2], 396.16 K	–	–	190.1 ± 0.22
[2], 396.69 K	–	–	192.76 ± 0.22

CCCOC(C)=O [propyl ethanoate] + CCCCC
[3], x1 = 1
Settings	mass density [kg/m3]
291.15 K	889.6 ± 0.2
298.15 K	882.5 ± 0.2
